In US12577213B2 (NINGBO COMBIREG PHARMACEUTICAL TECHNOLOGY CO., LTD., priority 2020, dated 2026):
Read-outs that look alike come from different tables or passages of the source.

What was measured:
[1] = system: A549 (non-small cell lung cancer); assay: NCI method SRB growth inhibition, A549; type: cell-based; settings: Homo sapiens; A549, treated 48 hours, SRB stain
Description: (§1) In this embodiment, the method of National Cancer Institute (NCI) was used to evaluate the anti-tumor activity of the embodiment compounds in the present disclosure. Nine representative cell lines were selected for activity evaluation, including A549 (non-small cell lung cancer), HCT116 (colon cancer), SF295 (central nervous system tumor), LOX-IMVI (melanoma), 786-0 (renal cancer), K562 (leukemia), PC-3 (prostate cancer), OVCAR-3 (ovarian cancer) and HS 578T (breast cancer).
(§2) The specific method was as follows: 60 tumor cell lines of 9 kinds of human cancers were used to evaluate the inhibitory activity of the compound in vitro. A test group, a parallel control group and a vehicle control group were set up. The parallel control group was fixed immediately before the compound was added; the cells in the test group were fixed after being treated with the compound for 48 hours; the vehicle control group was fixed after an equal volume of complete medium was added for 48 hours. Sulforhodamine B (SRB) was used to stain, and the OD value was measured at a wavelength of 515 nm. The specific calculation method was as follows: the OD value of the parallel control group was recorded as Tz, the OD value of the vehicle control group was recorded as C, and the OD value of the test group was recorded as (Ti). If Ti≥Tz, it means that the cells still grow after the drug was added, and the growth rate %=[(Ti−Tz)/(C−Tz)]×100; if Ti<Tz, it means that the cells are killed after the drug was added, and the growth rate %=[(Ti−Tz)/Tz]×100. Three parameters were used to evaluate the anti-tumor activity of compounds in this method: 50% growth inhibitory concentration (GI50): i.e. the compound concentration at [(Ti−Tz)/(C−Tz)]×100=50; complete growth inhibitory concentration (TGI): the compound concentration at Ti=Tz; the drug concentration required to kill 50% of the cells (LC50): i.e. the compound concentration at [(Ti−Tz)/Tz]×100=−50.
(§3) The inhibitory activities of the embodiment compounds on nine representative tumor cell lines were listed in detail in Table 1. Wherein, the GI50 value means “50% growth inhibition rate”, that is, the concentration of the compound to be tested when it can inhibit […] of cell growth; “ND” means not detected.

PC-3 (prostate cancer) = assay: NCI method SRB growth inhibition, PC-3; type: cell-based; settings: Homo sapiens; PC-3, treated 48 hours, SRB stain
Description: as §1, §2, §3

HCT116 (colon cancer) = assay: NCI method SRB growth inhibition, HCT116; type: cell-based; settings: Homo sapiens, HCT-116; HCT116, treated 48 hours, SRB stain
Description: as §1, §2, §3

K562 (leukemia) = assay: NCI method SRB growth inhibition, K562; type: cell-based; settings: Homo sapiens; K562, treated 48 hours, SRB stain
Description: as §1, §2, §3

OVCAR-3 (ovarian cancer) = assay: NCI method SRB growth inhibition, OVCAR-3; type: cell-based; settings: Homo sapiens; OVCAR-3, treated 48 hours, SRB stain
Description: as §1, §2, §3

[2] = Liver microsomes stability; type: in vitro ADME, human; settings: 1 μM compound, 1 mg/mL human liver microsomes, 1 mM NADPH; for half-life at 1 μM: read-out: T½ of HLM
Protocol: The compound to be tested with final concentration of 1 μM was incubated with 1 mg/mL of human liver microsomes and 1 mM of NADPH, and a group without NADPH was set as a negative control. The reaction mixture was quenched with methanol at five time points of 0, 5, 15, 30 and 60 min, respectively, then centrifuged at 2500 rpm for 20 min to precipitate proteins, and the resulting supernatant was analyzed by LC-MS/MS. The data was analyzed and the k value and half-life T1/2 was calculated, T1/2(min)=0.693/k.
Wherein, compounds a, b and c are active compounds disclosed in patent No. ZL201610154581.3.

[3] = system: SF295 (central nervous system tumor); assay: NCI method SRB growth inhibition, SF295; type: cell-based; settings: Homo sapiens, SF-295; SF295, treated 48 hours, SRB stain
Description: as §1, §2, §3

LOX-IMVI (melanoma) = assay: NCI method SRB growth inhibition, LOX-IMVI; type: cell-based; settings: Homo sapiens, treated 48 hours, SRB stain
Description: as §1, §2, §3

786-0 (renal cancer) = assay: NCI method SRB growth inhibition, 786-0; type: cell-based; settings: Homo sapiens; 786-0, treated 48 hours, SRB stain
Description: as §1, §2, §3

HS 578T (breast cancer) = assay: NCI method SRB growth inhibition, HS 578T; type: cell-based; settings: Homo sapiens, HS578T, treated 48 hours, SRB stain
Description: as §1, §2, §3

microsomal CLint at 1 μM [2] [µL/min/mg] | half-life at 1 μM ([2]; human, human liver microsomes) [min] | Compound | GI50 [1] [nM] | GI50 (PC-3 (prostate cancer)) [nM] | GI50 (HCT116 (colon cancer)) [nM] | GI50 (K562 (leukemia)) [nM] | GI50 (OVCAR-3 (ovarian cancer)) [nM] | GI50 [3] [nM] | GI50 (LOX-IMVI (melanoma)) [nM] | GI50 (786-0 (renal cancer)) [nM] | GI50 (HS 578T (breast cancer)) [nM] | half-life at 1 μM [2] [min] | microsomal CLint at 1 μM ([2]; human, human liver microsomes) [µL/min/mg]
26.9 | 25.8 | [2H]C([2H])([2H])c1cc(Oc2cc3c(cc2NC(=O)c2cc(OC)c(OC)c(OC)c2Cl)NC(=O)[C@H](CC(=O)N(CC)CC)NC3=O)cc(C([2H])([2H])[2H])c1 [Compound 23, (S)-2-chloro-N-[3-[2-(diethylamino)-2-oxoethyl]-7-[3,5-bis(trideuteromethyl)phenoxy]-2,5-dioxo-2,3,4,5-tetrahydro-1H-benzo[e][1,4]diazepin-8-yl]-3,4,5-trimethoxybenzamide] | 11.6 | 6.1 | < 5 | < 5 | 6.6 | 10.5 | < 5 | 67.5 | 24.9 |  | 
29.8 | 23.3 | [2H]c1c(Oc2cc3c(cc2NC(=O)c2cc(OC)c(OC)c(OC)c2Cl)NC(=O)[C@H](CC(=O)N(CC)CC)NC3=O)c([2H])c(C([2H])([2H])[2H])c([2H])c1C([2H])([2H])[2H] [Compound 25, (S)-2-chloro-N-[3-[2-(diethylamino)-2-oxoethyl]-7-[3,5-bis(trideuteromethyl)-2,4,6-trideuterophenoxy]-2,5-dioxo-2,3,4,5-tetrahydro-1H-benzo[e][1,4]diazepin-8-yl]-3,4,5-trimethoxybenzamide] | 19.1 | 5 | < 5 | < 5 | 8.3 | 14.2 | < 5 | 15.8 | 30.3 |  | 
5.4 | 128 | [2H]C([2H])([2H])Oc1cc(C(=O)Nc2cc3c(cc2Oc2cc(C)cc(C)c2)C(=O)N[C@@H](CC(=O)N2CCN(C)CC2)C(=O)N3)c(Br)c(OC([2H])([2H])[2H])c1OC([2H])([2H])[2H] [Compound 29, (S)-2-bromo-N-[7-(3,5-dimethylphenoxy)-3-[2-(4-methylpiperazin-1-yl)-2-oxoethyl]-2,5-dioxo-2,3,4,5-tetrahydro-1H-benzo[e][1,4]diazepin-8-yl]-3,4,5-tris(trideuteromethoxy)benzamide] | 11.8 | < 5 | 12 | 4.2 | < 5 | 93.8 | < 5 | 244 | < 5 |  | 
4.3 | 161 | [2H]C([2H])([2H])Oc1cc(C(=O)Nc2cc3c(cc2Oc2cc(C)cc(C)c2)C(=O)N[C@@H](CC(=O)N(C)OC)C(=O)N3)c(Br)c(OC([2H])([2H])[2H])c1OC([2H])([2H])[2H] [Compound 30] | 4.9 | < 5 | 7.8 | 1.6 | < 5 | 11.6 | < 5 | 8.6 | < 5 |  | 

More lines, now with the values behind:

Compound | microsomal CLint at 1 μM [2] [µL/min/mg] | half-life at 1 μM ([2]; human, human liver microsomes) [min] | GI50 [1] [nM] | GI50 (PC-3 (prostate cancer)) [nM] | GI50 (HCT116 (colon cancer)) [nM] | GI50 (K562 (leukemia)) [nM] | GI50 (OVCAR-3 (ovarian cancer)) [nM] | GI50 [3] [nM] | GI50 (LOX-IMVI (melanoma)) [nM] | GI50 (786-0 (renal cancer)) [nM] | GI50 (HS 578T (breast cancer)) [nM] | half-life at 1 μM [2] [min] | microsomal CLint at 1 μM ([2]; human, human liver microsomes) [µL/min/mg]
[2H]C([2H])([2H])N1C(=O)c2cc(Oc3cc(C)cc(C)c3)c(NC(=O)c3cc(OC)c(OC)c(OC)c3Cl)cc2NC(=O)[C@@H]1CC(=O)N(C([2H])([2H])C([2H])([2H])[2H])C([2H])([2H])C([2H])([2H])[2H] [Compound 19, (S)-2-chloro-N-[3-[2-[bis(pentadeuteroethyl)amino]-2-oxoethyl]-7-(3,5-dimethylphenoxy)-4-(trideuteromethyl)-2,5-dioxo-2,3,4,5-tetrahydro-1H-benzo[e][1,4]diazepin-8-yl]-3,4,5-trimethoxybenzamide] | 21.1 | 32.9 | 5.9 | < 5 | 5 | < 5 | 6.2 | 11.8 | < 5 | 19.7 | 80.7 |  | 
[2H]c1c(C)c([2H])c(Oc2cc3c(cc2NC(=O)c2cc(OC)c(OC)c(OC)c2Cl)NC(=O)[C@H](CC(=O)N(CC)CC)NC3=O)c([2H])c1C [Compound 24, (S)-2-chloro-N-[3-[2-(diethylamino)-2-oxoethyl]-7-(3,5-dimethyl-2,4,6-trideuterophenoxy)-2,5-dioxo-2,3,4,5-tetrahydro-1H-benzo[e][1,4]diazepin-8-yl]-3,4,5-trimethoxybenzamide] | 28.4 | 24.4 | 207 | 39.5 | 123 | 25.5 | 87.6 | 135 | 65.8 | 276 | 188 |  | 
[2H]C([2H])([2H])Oc1cc(C(=O)Nc2cc3c(cc2Oc2cc(C)cc(C)c2)C(=O)N[C@@H](CC(=O)C(C)(C)P(=O)(OC)OC)C(=O)N3)c(Br)c(OC([2H])([2H])[2H])c1OC([2H])([2H])[2H] [Compound 26, (S)-dimethyl-(4-8-(2-bromo-3,4,5-tris(trideuteromethoxy)benzoyl)-7-(3,5-dimethylphenoxy)-2,5-dioxo-2,3,4,5-tetrahydro-1H-benzo[e][1,4]diazepin-3-yl)-2-methyl-3-oxobutyl-2-yl)dimethyl phosphate] |  |  | 13 | < 5 | 14.2 | < 5 | 6 | 42.7 | 6.2 | 57.4 | 10 | 217 | 3.2
[2H]C([2H])([2H])Oc1cc(C(=O)Nc2cc3c(cc2Oc2cc(C)cc(C)c2)C(=O)N(C)[C@@H](CC(=O)N2CCN(C)CC2)C(=O)N3)c(Br)c(OC([2H])([2H])[2H])c1OC([2H])([2H])[2H] [Compound 28] |  |  | < 5 | < 5 | < 5 | < 5 | < 5 | 18 | < 5 | 66 | < 5 | 41.8 | 16.8
[2H]C([2H])([2H])Oc1cc(C(=O)Nc2cc3c(cc2Oc2cc(C)cc(C)c2)C(=O)N[C@@H](CC(=O)N(C)O)C(=O)N3)c(Br)c(OC([2H])([2H])[2H])c1OC([2H])([2H])[2H] [Compound 31] |  |  | < 5 | < 5 | 17 | < 5 | < 5 | 58 | < 5 | 28.1 | 8.6 | 43.3 | 16
[2H]C([2H])([2H])Oc1cc(C(=O)Nc2cc3c(cc2Oc2cc(C)cc(C)c2)C(=O)N(C)[C@@H](CC(=O)N(C)OC)C(=O)N3)c(Br)c(OC([2H])([2H])[2H])c1OC([2H])([2H])[2H] [Compound 32] |  |  | < 5 | < 5 | < 5 | < 5 | < 5 | 5 | < 5 | < 5 | < 5 | 24.7 | 28.1
